“Also recorded” adds a separate entry of the source.
T1: RARβ (Homo sapiens, UniProt P10826)
T1 construct: expressed in transfected cells; host or cells: P19 embryonal carcinoma cells
T1 sequence (P10826 1-455): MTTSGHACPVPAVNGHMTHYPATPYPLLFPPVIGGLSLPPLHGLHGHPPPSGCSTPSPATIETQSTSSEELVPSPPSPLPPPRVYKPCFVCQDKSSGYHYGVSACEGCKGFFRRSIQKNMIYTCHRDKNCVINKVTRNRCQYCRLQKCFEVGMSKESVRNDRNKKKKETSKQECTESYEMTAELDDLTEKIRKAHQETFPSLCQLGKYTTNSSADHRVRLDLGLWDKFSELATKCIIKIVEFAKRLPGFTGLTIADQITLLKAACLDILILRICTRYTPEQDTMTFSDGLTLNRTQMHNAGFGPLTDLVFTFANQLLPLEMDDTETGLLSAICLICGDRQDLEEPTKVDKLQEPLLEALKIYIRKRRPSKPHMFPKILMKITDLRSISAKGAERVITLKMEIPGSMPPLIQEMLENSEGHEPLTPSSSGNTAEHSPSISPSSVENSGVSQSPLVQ

T2: RARα (Homo sapiens, UniProt P10276)
T2 construct: expressed in transfected cells; host or cells: P19 embryonal carcinoma cells
T2 sequence (P10276 1-462): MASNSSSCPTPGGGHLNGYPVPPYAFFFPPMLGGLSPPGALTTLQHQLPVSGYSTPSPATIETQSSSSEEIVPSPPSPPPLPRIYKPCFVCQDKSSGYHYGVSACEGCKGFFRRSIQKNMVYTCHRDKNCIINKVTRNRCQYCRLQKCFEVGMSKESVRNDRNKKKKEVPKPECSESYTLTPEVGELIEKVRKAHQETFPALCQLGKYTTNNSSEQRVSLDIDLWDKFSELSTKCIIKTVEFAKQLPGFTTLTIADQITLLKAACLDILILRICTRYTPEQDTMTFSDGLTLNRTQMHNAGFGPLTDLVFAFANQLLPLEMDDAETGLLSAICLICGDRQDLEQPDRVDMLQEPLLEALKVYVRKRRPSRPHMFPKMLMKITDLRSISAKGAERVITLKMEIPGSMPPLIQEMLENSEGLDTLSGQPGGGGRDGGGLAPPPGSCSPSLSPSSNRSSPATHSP

T3: RARγ (Homo sapiens, UniProt P13631)
T3 construct: expressed in transfected cells; host or cells: P19 embryonal carcinoma cells
T3 sequence (P13631 1-454): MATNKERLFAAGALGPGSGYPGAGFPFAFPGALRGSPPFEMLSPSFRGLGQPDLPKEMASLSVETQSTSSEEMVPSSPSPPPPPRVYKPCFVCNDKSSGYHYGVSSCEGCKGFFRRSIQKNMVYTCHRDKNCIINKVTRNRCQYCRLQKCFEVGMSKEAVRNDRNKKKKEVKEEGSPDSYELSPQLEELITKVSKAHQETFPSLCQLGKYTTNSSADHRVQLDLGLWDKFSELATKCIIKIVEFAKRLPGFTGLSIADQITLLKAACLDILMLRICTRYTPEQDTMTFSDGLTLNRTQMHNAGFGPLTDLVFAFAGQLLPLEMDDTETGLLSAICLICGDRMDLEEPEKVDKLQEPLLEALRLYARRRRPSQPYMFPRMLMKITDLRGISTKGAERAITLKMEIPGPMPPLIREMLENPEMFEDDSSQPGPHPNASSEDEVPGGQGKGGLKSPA


Tests used:
[1] = system: wild-type limb mesenchyme micromass cultures; test: Cartilage nodule formation in wild-type limb bud micromass cultures (alcian blue staining); format: cell-based, murine
Protocol: Micromass cultures were prepared from murine E11.25 to E11.75 fore and hind limb buds as previously described with the following modifications (Cash et al. (1997) J. Cell Biol. 136, 445-457). After proteolytic digestion cells were filtered through a Cell Sieve ([…], Falcon) to obtain a single cell suspension. Culture media (40% Dulbecco's modified Eagle's medium, 60% F12 was supplemented with fetal bovine serum to 10%, Gibco-BRL) was changed daily. […] Addition/removal experiments included either adding or removing supplemented media on the indicated culture day, 24 hours after culture initiation was considered day 1. To detect transgene-expressing cells, cultures were fixed stained as previously described, with magenta-gal (BioSynth International Inc.) being substituted for X-gal. This was followed by alcian blue staining for cartilage-specific glycosaminoglycans. Alcian blue staining of magenta-gal stained cultures turned the red precipitate to a purple color, this is a result of incubating magenta-gal stained cells at pH 1. This double-staining technique enables transgene-expressing cells to be localized with respect to alcian blue stained cartilage nodules.

[2] = biological target: T1, RARβ; test: Transient transfection: inhibition of all-trans RA induction of RARE luciferase construct in P19 cells, RARβ; format: cell-based; conditions: 1 μM AGN194301, 100 nM all-trans RA
Protocol: (§1) The ability of AGN194301 to inhibit all-trans RA induction of an RARE containing luciferase construct was performed in P19 embryonal carcinoma cells as previously described with some modification (Underhill et al. (1994) Mol. Endo. 8, 274-285). P19 cells were seeded at a density of 1.5×10^4 cells/well in 6 well plates. […] Following transfection cells were washed and fresh media was added that contained 1×10^−7 M all-trans RA and various amounts of AGN194301. Twenty-four hours later cell extracts were prepared, and luciferase and β-galactosidase activity measured. Luciferase activity was normalized with β-galactosidase activity to control for differences in transfection efficiency.
(§2) RAR activity as used herein refers to the level of RA-induced transcriptional activity of the RARs. Micromass cultures were treated with the RARα-specific antagonist AGN194301 to examine whether inhibition of RARα activity stimulated cartilage formation. Addition of 1 μM AGN194301 to wild-type micromass cultures lead to a dramatic increase in nodule number with no apparent increase in nodule size as compared to untreated control cultures (FIG. 5G, J, M). […] To confirm that the concentrations utilized in these experiments inhibited RARα activity specifically, the level of RARα, RARβ and RARγ mediated RARE activation was measured with 100 nM all-trans RA in the presence of various concentrations of antagonist. […]

[3] = biological target: T2, RARα; test: Transient transfection: inhibition of all-trans RA induction of RARE luciferase construct in P19 cells, RARα; format: cell-based; conditions: 1 μM AGN194301, 100 nM all-trans RA
Protocol: as §1, §2

[4] = biological target: T3, RARγ; test: Transient transfection: inhibition of all-trans RA induction of RARE luciferase construct in P19 cells, RARγ; format: cell-based; conditions: 1 μM AGN194301, 100 nM all-trans RA
Protocol: as §1, §2

RARβ signaling (RARE activation) remaining [2] | RARα signaling (RARE activation) remaining [3] | RARγ signaling (RARE activation) remaining [4] | Molecule | rescue of cartilage nodule formation in Noggin-treated cultures ([1]; 1 μM AGN194301 + 10 ng/ml Noggin, day 6) | increase in number of cartilage nodules (more nodules than untreated cultures) ([1]; 1 μM AGN194301, 8 days in culture, wild-type cultures, FIG. 5M) | reduction of cartilage nodule formation in comparison to untreated controls ([1]; 10 ng/ml Noggin, wild-type cultures) | number of cartilage nodules relative to control cultures ([1]; Noggin alone 10 ng/ml, FIG. 6d)
~18 % of controls | ~0.3 % of controls | ~26 % of controls | Cc1ccc(C2=CC(C)(C)Oc3c(Br)cc(C(=O)Nc4ccc(C(=O)O)c(F)c4)cc32)cc1 [AGN194301, 2-Fluoro-4-[(1-(8-bromo-2,2-dimethyl-4-(4-methylphenyl)-2-H-chromen-6-yl)-methanoyl)-amino]-benzoic acid] | resembled untreated cultures; also recorded: comparable to that of control cultures | 60% |  | 
 |  |  | Noggin: purified Xenopus noggin protein, secreted inhibitor of BMP-2 and -4 (protein, UniProt P49011 20-222, looked up) Noggin: RIDQGGCQHYLHIRPAPSENLPLVDLIEHPDPIYDPKEKDLNETLLRTLMVGHFDPNFMATILPEERLGVEDLGELDLLLRQKPSGAMPAEIKGLEFYEGLQSKKHRLSKKLRRKLQMWLWSQTFCPVLYTWNDLGTRFWPRYVKVGSCYSKRSCSVPEGMVCKAAKSMHLTILRWRCQRRVQQKCAWITIQYPVISECKCSC |  |  | ~84% | ~10 % of that of control cultures

— US7608281B2, “Composition and use of RAR antagonists for promoting chondrogenesis” (T. Michael Underhill, priority 1999, dated 2009)
